How the values were obtained:
Progesterone receptor = target: T1, Progesterone receptor (Homo sapiens, UniProt P06401); test: Inhibition of human progesterone receptor
T1 sequence (P06401 whole entry): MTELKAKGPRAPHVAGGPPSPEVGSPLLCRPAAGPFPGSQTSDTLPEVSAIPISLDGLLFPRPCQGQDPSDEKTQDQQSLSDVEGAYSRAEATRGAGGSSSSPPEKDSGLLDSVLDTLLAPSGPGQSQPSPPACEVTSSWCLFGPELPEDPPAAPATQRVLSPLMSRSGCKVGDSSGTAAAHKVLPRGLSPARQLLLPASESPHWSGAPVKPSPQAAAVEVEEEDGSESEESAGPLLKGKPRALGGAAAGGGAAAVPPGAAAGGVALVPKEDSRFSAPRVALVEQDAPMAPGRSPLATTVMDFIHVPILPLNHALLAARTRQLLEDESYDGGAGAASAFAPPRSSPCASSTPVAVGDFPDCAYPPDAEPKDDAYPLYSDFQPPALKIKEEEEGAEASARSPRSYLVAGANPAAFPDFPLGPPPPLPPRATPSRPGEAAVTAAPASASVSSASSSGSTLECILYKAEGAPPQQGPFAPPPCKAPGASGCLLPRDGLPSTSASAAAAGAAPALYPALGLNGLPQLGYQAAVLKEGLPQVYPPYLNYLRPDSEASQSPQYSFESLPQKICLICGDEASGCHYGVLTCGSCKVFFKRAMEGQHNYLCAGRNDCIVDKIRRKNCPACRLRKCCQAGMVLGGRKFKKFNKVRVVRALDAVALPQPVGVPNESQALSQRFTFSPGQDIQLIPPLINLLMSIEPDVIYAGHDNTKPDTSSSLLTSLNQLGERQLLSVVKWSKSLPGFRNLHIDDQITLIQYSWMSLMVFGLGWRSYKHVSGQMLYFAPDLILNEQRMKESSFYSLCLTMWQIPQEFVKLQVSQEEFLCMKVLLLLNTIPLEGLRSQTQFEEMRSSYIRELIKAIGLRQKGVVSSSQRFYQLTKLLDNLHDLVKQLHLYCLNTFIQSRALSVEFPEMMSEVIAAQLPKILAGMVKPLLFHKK

Mus musculus [1] = species on record: Mus musculus; test: Initial weight of the ob/ob mice before oral treatment at 100 mpk b.i.d. for 14 days; format: functional
Mus musculus [2] = species on record: Mus musculus; test: Final weight of the ob/ob mice after 14 days of oral treatment at 100 mpk b.i.d.; format: functional
[3] = Half life period of the compound in human hepatocytes was determined; format: ADME, cell-based, Liver, Hepatocyte
[4] = Half life period of the compound in human liver microsomes was determined; format: ADME, Microsome
[5] = Plasma protein binding of tritium labeled compound in mouse plasma was determined; format: ADME, cell-free; details: read-out: Protein binding (converted)
[6] = Liver TAT levels in ob/ob mice after 14 days of oral dose at 100 mpk b.i.d.; format: ADME, tissue-based; details: mouse, in vivo, 100 mg/kg, 336 h
[7] = Cholesterol levels in ob/ob mice after 14 days of oral dose at 100 mpk b.i.d.; format: ADME; details: mouse, in vivo, 100 mg/kg, 336 h
[8] = Cholesterol levels in ob/ob mice after 30 days of oral dose at 100 mpk b.i.d.; format: ADME; details: mouse, in vivo, 100 mg/kg, 720 h
[9] = Triglyceride levels in ob/ob mice after 30 days of oral dose at 30 mpk b.i.d.; format: ADME; details: mouse, in vivo, 30 mg/kg, 720 h
[10] = Triglyceride levels in ob/ob mice after 30 days of oral dose at 100 mpk b.i.d.; format: ADME; details: mouse, in vivo, 100 mg/kg, 720 h
[11] = Compound level in liver in SD rats after 1 hr of 5 mg/kg i.v. dose; format: ADME, organism-based; design: dose 5 mg/kg, route intravenous; details: Sprague-Dawley, rat, iv, read-out: Level
[12] = Compound level in liver in SD rats after 7 hr of 5 mg/kg i.v. dose; format: ADME, organism-based; design: dose 5 mg/kg, route intravenous; details: Sprague-Dawley, rat, iv, read-out: Level
[13] = Compound level in plasma in SD rats after 1 hr of 5 mg/kg i.v. dose; format: ADME, organism-based; design: dose 5 mg/kg, route intravenous; details: Sprague-Dawley, rat, iv, read-out: Level
[14] = Compound level in plasma in SD rats after 7 hr of 5 mg/kg i.v. dose; format: ADME, organism-based; design: dose 5 mg/kg, route intravenous; details: Sprague-Dawley, rat, iv, read-out: Level
[15] = Glucose levels in ob/ob mice after 14 days of oral dose at 100 mpk b.i.d.; format: ADME; details: mouse, in vivo, 100 mg/kg, 336 h
[16] = Free fatty acid (FFA) levels in ob/ob mice after 30 days of oral dose at 100 mpk b.i.d.; format: ADME; details: mouse, in vivo, 100 mg/kg, 720 h
[17] = Plasma protein binding of tritium labeled compound in human plasma was determined; format: ADME, cell-free; details: read-out: Protein binding
[18] = Compound level in liver in ob/ob mice after 13 days of 100 mpk oral dose of compound; format: ADME; details: mouse, 100 mg/kg, read-out: Level
[19] = HbA1c levels in ob/ob mice after 30 days of oral dose at 100 mpk b.i.d.; details: mouse, in vivo, 100 mg/kg, 720 h
Mus musculus [20] = species on record: Mus musculus; test: Final weight of the ob/ob mice after 13 days of oral treatment at 10 mpk b.i.d.; format: functional
Mus musculus [21] = species on record: Mus musculus; test: Initial weight of the ob/ob mice before oral treatment at 10 mpk b.i.d. for 13 days; format: functional
[22] = Compound level in plasma in ob/ob mice after 13 days of 100 mpk oral dose of compound; format: ADME; details: mouse, 100 mg/kg, read-out: Level
Androgen receptor = target: T2, Androgen receptor (Homo sapiens, UniProt P10275)
T2 sequence (P10275 whole entry): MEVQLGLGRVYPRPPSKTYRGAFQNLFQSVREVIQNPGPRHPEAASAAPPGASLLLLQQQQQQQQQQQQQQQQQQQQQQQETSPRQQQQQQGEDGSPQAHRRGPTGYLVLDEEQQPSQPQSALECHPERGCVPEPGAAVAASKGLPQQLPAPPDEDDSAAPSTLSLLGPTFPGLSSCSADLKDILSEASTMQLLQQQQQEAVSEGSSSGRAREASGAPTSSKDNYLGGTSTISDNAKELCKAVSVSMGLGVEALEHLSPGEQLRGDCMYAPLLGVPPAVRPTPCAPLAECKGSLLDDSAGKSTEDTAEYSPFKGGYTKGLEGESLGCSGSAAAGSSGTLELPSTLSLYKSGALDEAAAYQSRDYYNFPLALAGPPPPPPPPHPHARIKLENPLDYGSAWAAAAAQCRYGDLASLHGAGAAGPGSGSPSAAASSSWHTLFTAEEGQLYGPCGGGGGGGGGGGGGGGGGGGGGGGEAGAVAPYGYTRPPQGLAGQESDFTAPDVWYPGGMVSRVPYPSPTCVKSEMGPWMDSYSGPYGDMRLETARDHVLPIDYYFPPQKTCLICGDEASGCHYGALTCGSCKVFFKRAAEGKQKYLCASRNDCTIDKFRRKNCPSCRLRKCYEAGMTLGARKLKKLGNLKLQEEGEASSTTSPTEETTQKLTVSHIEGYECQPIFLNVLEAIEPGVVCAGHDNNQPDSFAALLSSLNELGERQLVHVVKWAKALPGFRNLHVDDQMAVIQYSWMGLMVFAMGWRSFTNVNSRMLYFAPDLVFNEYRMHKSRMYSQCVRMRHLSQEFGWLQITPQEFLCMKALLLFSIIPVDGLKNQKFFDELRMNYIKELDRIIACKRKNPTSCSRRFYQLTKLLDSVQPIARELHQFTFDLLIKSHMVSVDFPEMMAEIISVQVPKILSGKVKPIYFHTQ

SMILES	IC50 (Progesterone receptor)	half-life [3]	half-life [4]	concentration at 1 h [11]	concentration at 7 h [12]	concentration at 1 h [13]	concentration at 7 h [14]	concentration at 312 h [18]	IC50 (Androgen receptor)	further results
Cc1c(NS(C)(=O)=O)cccc1N(Cc1ccc(Oc2ccc(F)c(OCC(=O)O)c2)cc1)Cc1ccc(F)cc1F	0.18 µM	9.1 h	2.3 h	74000 ng/g	40000 ng/g	1.6 µg/mL	0.65 µg/mL	157000 ng/g		Weight (Mus musculus [1]): 40 g; Weight (Mus musculus [2]): 46.9 g; fraction unbound [5]: 0.003; Level [6]: 2.4 nmol ofpHB/min/mgof protein; Level [7]: 1340 µg/mL; Level [8]: 2390 µg/mL; Level [9]: 2140 µg/mL; Level [10]: 1630 µg/mL; Level [15]: 2330 µg/mL; Level [16]: 1.27 mequiv/L; fraction unbound [17]: 0.001; Level [19]: 7.7%
Cc1c(NS(C)(=O)=O)cccc1N(Cc1ccccc1)Cc1ccc(Oc2ccc(OCC(=O)O)cc2)cc1	1.7 µM	31.1 h	8.9 h	20000 ng/g	3800 ng/g	0.03 µg/mL	0.01 µg/mL	207000 ng/g	11.7 µM	Weight (Mus musculus [20]): 49.3 g; Weight (Mus musculus [21]): 45.4 g; concentration at 312 h [22]: 1.6 µg/mL
CC#C[C@]1(O)CC[C@H]2[C@@H]3CCC4=CC(=O)CC[C@]4(Cc4ccc(C)cc4)C3=CC[C@@]21C	2.4 µM								6.5 µM	
Cc1c(NS(C)(=O)=O)cccc1N(Cc1ccc(Oc2ccc(Cl)c(OCC(=O)O)c2)cc1)Cc1ccc(F)cc1F	0.15 µM								3.6 µM	
Cc1c(NS(C)(=O)=O)cccc1N(Cc1ccccc1)Cc1ccc(Oc2cccc(OCCCC(=O)NCCCC(=O)O)c2)cc1	0.55 µM								1.6 µM	

Source: ChEMBL document CHEMBL1141148, “Antidiabetic activity of passive nonsteroidal glucocorticoid receptor modulators” (J Med Chem, 2005)
